ChEMBL document CHEMBL4483862, “Open-source discovery of chemical leads for next-generation chemoprotective antimalarials” (2018)

Tested on: Plasmodium berghei
Test: Luciferase/luciferin-expressing antifolate-resistant parasites were used to infect a culture of HepG2 cells that were pre-incubated with compounds. Infected hepatocytes emit light due to the luciferase reaction. Assay results are presented as the percent inhibition of light emission compared to control. […]
Type: functional
Details: sporozoite; for IC90: read-out: LUCIFERASE INFECTION ASSAY - IC90
[1] = read-out: LUCIFERASE INFECTION ASSAY - IC50

Structure (SMILES) | IC50 [1] [µM] | IC90 [µM] | also measured
CC(C)N(Cc1nc(=O)c2ccccc2[nH]1)C(=O)COc1ccccc1Cc1ccccc1 | > 10 | > 10 | 
Cn1cccc1C(=O)N1CC2ON=C(c3ccc(F)cc3)C2C1 (stereo not drawn) | > 10 | > 10 | 
CCCS(=O)(=O)/C(C#N)=C/c1ccc(-c2ccc(OC)cc2)s1 | 1.09 | 2.37 | 
CNc1ccccc1C(C)(C)c1cc(-c2ccc(C(C)C)cc2)n[nH]1 |  | > 10 | IC50 (HEPG2TOX_HILL_SLOPE 0.485, HEPG2TOX_R_SQUARED 0.452, PBLUC_HILL_SLOPE 15.6, PBLUC_R_SQUARED 0.572, read-out: LUCIFERASE INFECTION ASSAY - IC50): 8.84 µM
Cc1cccc(OC2CCN(C(=O)NCc3cc[nH]n3)CC2)c1C | > 10 | > 10 | 
CS(=O)(=O)N1CCCc2cc(-c3csc(Nc4ccccn4)n3)ccc21 |  | 2.51 | IC50 (HEPG2TOX_HILL_SLOPE 15.9, HEPG2TOX_R_SQUARED 0.84, PBLUC_HILL_SLOPE 1.6, PBLUC_R_SQUARED 0.55, read-out: LUCIFERASE INFECTION ASSAY - IC50): 0.637 µM
Cc1sc2nc(-c3cccnc3)nc(Nc3ccc(N(C)C)nc3)c2c1C |  | 5.59 | IC50 (PBLUC_HILL_SLOPE 6.08, PBLUC_R_SQUARED 0.68, read-out: LUCIFERASE INFECTION ASSAY - IC50): 3.9 µM
COc1ccc2cc(CN(C)CC(=O)Nc3sccc3C(N)=O)ccc2c1 |  | 4.94 | IC50 (HEPG2TOX_HILL_SLOPE 0.237, HEPG2TOX_R_SQUARED 0.621, PBLUC_HILL_SLOPE 9.54, PBLUC_R_SQUARED 0.647, read-out: LUCIFERASE INFECTION ASSAY - IC50): 3.92 µM
N#C/C(=N\Nc1cccc(Cl)c1)C(=O)c1cc(-c2ccccc2)c(C(F)(F)F)s1 |  | 1.5 | IC50 (HEPG2TOX_HILL_SLOPE 1.47, HEPG2TOX_R_SQUARED 0.986, PBLUC_HILL_SLOPE 2.41, PBLUC_R_SQUARED 0.872, read-out: LUCIFERASE INFECTION ASSAY - IC50): 0.605 µM
N#C/C(=C\Nc1ccc(OC(F)(F)F)cc1)S(=O)(=O)c1ccc(Cl)cc1 | > 8.19 | > 8.19 | 
CC1CC(C)CN(S(=O)(=O)N2CCN(c3ccc(C(F)(F)F)cc3[N+](=O)[O-])CC2)C1 (stereo not drawn) | > 10 | > 10 | 
FC(F)(F)c1nc2ccccc2c2nnc(-c3ccc(Cl)cc3)n12 |  | 3.88 | IC50 (HEPG2TOX_HILL_SLOPE 3.1, HEPG2TOX_R_SQUARED 0.959, PBLUC_HILL_SLOPE 22, PBLUC_R_SQUARED 0.45, read-out: LUCIFERASE INFECTION ASSAY - IC50): 3.51 µM
O=C(Nc1cccc(Cl)c1)n1nccc1-c1ccc(-c2cccs2)s1 | > 8.55 | > 8.55 | 
Clc1cncc(Cl)c1N1CCN(c2ccc(-c3cccnc3)cn2)CC1 | 0.996 | > 8.54 | 
O=C(NC1CC1)N1CCN(S(=O)(=O)c2ccc3c(c2)OCCCO3)CC1 | > 10 | > 10 | 
FC(F)(F)Oc1cccc(-c2nc3ccnc(NCCc4ccccn4)c3[nH]2)c1 |  | 7.15 | IC50 (HEPG2TOX_HILL_SLOPE 1.56, HEPG2TOX_R_SQUARED 0.653, PBLUC_HILL_SLOPE 2.89, PBLUC_R_SQUARED 0.498, read-out: LUCIFERASE INFECTION ASSAY - IC50): 3.34 µM
Cc1c(C(=O)Nc2ncccc2O)[nH]c2c1C(=O)CCC2 |  | > 10 | IC50 (FFLUC_HILL_SLOPE 16.5, FFLUC_R_SQUARED 0.153, HEPG2TOX_HILL_SLOPE 5.63, HEPG2TOX_R_SQUARED 0.429, read-out: LUCIFERASE INFECTION ASSAY - IC50): > 10 µM
Cc1cc2nc(NC3=NCN(Cc4cccnc4)CN3)nc(C)c2cc1C | > 9.13 | > 9.13 | 
Cc1cc(C)c(S(=O)(=O)N2CCN(C(=O)CCCOc3ccc(Cl)c(C)c3)CC2)c(C)c1 | > 10 | > 10 | 
Cc1cc(-n2c(C)cc(C(=O)COc3ccccc3C#N)c2C)no1 |  | > 10 | IC50 (PBLUC_HILL_SLOPE 4.77, PBLUC_R_SQUARED 0.224, read-out: LUCIFERASE INFECTION ASSAY - IC50): 7.56 µM
COc1cc(C2CC(=O)c3cn[nH]c3C2)cc(OC)c1OC (stereo not drawn) |  | > 10.9 | IC50 (HEPG2TOX_HILL_SLOPE 1.57, HEPG2TOX_R_SQUARED 0.775, PBLUC_HILL_SLOPE 1.9, PBLUC_R_SQUARED 0.199, read-out: LUCIFERASE INFECTION ASSAY - IC50): 5.83 µM
CS(=O)(=O)c1sc(NC(=O)Nc2ccccc2Cl)c2ccccc12 | > 8.66 | > 8.66 | 

Structure (SMILES) | IC50 [1] [µM] | IC90 [µM] | also measured
N#Cc1ccc(C(=O)Nc2ccc(Br)c(C(F)(F)F)c2)cc1 |  | 9.89 | IC50 (HEPG2TOX_HILL_SLOPE 28, HEPG2TOX_R_SQUARED 0.813, PBLUC_HILL_SLOPE 18.1, PBLUC_R_SQUARED 0.807, read-out: LUCIFERASE INFECTION ASSAY - IC50): 8.76 µM
Clc1ccc(OC2OCCOC2Oc2ccc(Cl)cc2Cc2ccccc2)c(Cc2ccccc2)c1 (stereo not drawn) | > 10 | > 10 | 
COc1ccc2c(c1)/C(=N/NC(=O)c1ccc(CSc3ccc(Cl)cc3)cc1)C(=O)N2 |  | > 10 | IC50 (FFLUC_HILL_SLOPE 11.4, FFLUC_R_SQUARED 0.124, PBLUC_HILL_SLOPE 3.43, PBLUC_R_SQUARED 0.087, read-out: LUCIFERASE INFECTION ASSAY - IC50): 6.03 µM
COc1cccc(-c2cnn3ccc(Nc4ccc(NS(=O)(=O)c5ccc(C)cc5)cc4)nc23)c1 |  | > 6.8 | IC50 (HEPG2TOX_HILL_SLOPE 3.16, HEPG2TOX_R_SQUARED 0.917, PBLUC_HILL_SLOPE 15.1, PBLUC_R_SQUARED 0.0764, read-out: LUCIFERASE INFECTION ASSAY - IC50): 6.21 µM
O=[N+]([O-])c1ccsc1Oc1ccc(Cl)cc1Cl | > 11.4 | > 11.4 | 
COc1ccc(OS(=O)(=O)c2sc(Br)cc2Br)cc1 |  | 3.26 | IC50 (HEPG2TOX_HILL_SLOPE 3.4, HEPG2TOX_R_SQUARED 0.9, PBLUC_HILL_SLOPE 10.6, PBLUC_R_SQUARED 0.653, read-out: LUCIFERASE INFECTION ASSAY - IC50): 2.64 µM
O=C(Nc1ccc(OC(F)(F)F)cc1)Nc1ccc2nc(-c3ccc(F)c(Cl)c3)nn2c1 |  | > 10 | IC50 (PBLUC_HILL_SLOPE 3.06, PBLUC_R_SQUARED 0.207, read-out: LUCIFERASE INFECTION ASSAY - IC50): 7.2 µM
CCCCCn1nc(C(=O)N2CCN(Cc3nc4ccccc4s3)CC2)c2ccccc2c1=O | > 10 | > 10 | 
Clc1ccccc1/C=C/c1nc(-c2ccccn2)no1 |  | > 11.6 | IC50 (FFLUC_HILL_SLOPE 3.15, FFLUC_R_SQUARED 0.695, PBLUC_HILL_SLOPE 0.408, PBLUC_R_SQUARED 0.784, read-out: LUCIFERASE INFECTION ASSAY - IC50): 0.446 µM
COc1cc(-c2ccc3ncc(-c4cccc(Cl)c4)n3n2)cc(OC)c1OC |  | 5.69 | IC50 (HEPG2TOX_HILL_SLOPE 9.46, HEPG2TOX_R_SQUARED 0.786, PBLUC_HILL_SLOPE 7.92, PBLUC_R_SQUARED 0.391, read-out: LUCIFERASE INFECTION ASSAY - IC50): 4.31 µM
CS(=O)(=O)c1ccc2c(c1)sc1nc(-c3ccccc3Cl)cn12 |  | > 10 | IC50 (PBLUC_HILL_SLOPE 1.82, PBLUC_R_SQUARED 0.22, read-out: LUCIFERASE INFECTION ASSAY - IC50): 4.47 µM
COc1cccc(CNCc2nc(NCc3cccc(OC)c3)c3c(C)c(C)sc3n2)c1 |  | > 10 | IC50 (HEPG2TOX_HILL_SLOPE 3.99, HEPG2TOX_R_SQUARED 0.699, PBLUC_HILL_SLOPE 15.2, PBLUC_R_SQUARED 0.535, read-out: LUCIFERASE INFECTION ASSAY - IC50): 8.97 µM
NC(Cc1ccc(C(F)(F)F)cc1)c1csc(Nc2nncc3ccccc23)n1 (stereo not drawn) | > 7.94 | > 7.94 | 
CCCN1CCc2nc(Nc3ccc(OCc4ccccc4)cc3)ncc2C1 | > 8.81 | > 8.81 | 
COc1cc(/C=N/NC(=O)c2cc(C)n(-c3ccccc3)c2C)ccc1OCC(=O)Nc1c(C)cc(C)cc1C |  | 8.35 | IC50 (HEPG2TOX_HILL_SLOPE 0.635, HEPG2TOX_R_SQUARED 0.731, PBLUC_HILL_SLOPE 5.43, PBLUC_R_SQUARED 0.0161, read-out: LUCIFERASE INFECTION ASSAY - IC50): 5.57 µM
O=C(Cn1ncc(Cl)c(Cl)c1=O)Nc1cc(Cl)ccc1[N+](=O)[O-] |  | 3.5 | IC50 (FFLUC_HILL_SLOPE 13.5, FFLUC_R_SQUARED 0.43, HEPG2TOX_HILL_SLOPE 9.94, HEPG2TOX_R_SQUARED 0.973, PBLUC_HILL_SLOPE 20.4, PBLUC_R_SQUARED 0.69, read-out: LUCIFERASE INFECTION ASSAY - IC50): 3.14 µM
CCOC(=O)C(NC(=O)c1ccco1)(Nc1ccc(F)c(Cl)c1)C(F)(F)F (stereo not drawn) | > 8.07 | > 8.07 | 
Cc1cc(C(=O)CSc2nnc(C3CC3)[nH]2)c(C)n1-c1cccc(C(F)(F)F)c1 |  | > 10 | IC50 (HEPG2TOX_HILL_SLOPE 7.7, HEPG2TOX_R_SQUARED 0.0445, PBLUC_HILL_SLOPE 1.16, PBLUC_R_SQUARED 0.631, read-out: LUCIFERASE INFECTION ASSAY - IC50): 3.51 µM
Cc1ccc2c(c1)CCCN2CC(=O)Nc1sccc1C(N)=O | > 10 | > 10 | 
O=C(Nc1ccc(F)cc1)OCCSc1ccc([N+](=O)[O-])c2nonc12 | > 8.72 | > 8.72 | 
NC(CCc1ccccc1)c1csc(Nc2ccc(C(=O)NCc3ccco3)cn2)n1 (stereo not drawn) |  | 7.53 | IC50 (HEPG2TOX_HILL_SLOPE 15.2, HEPG2TOX_R_SQUARED 0.624, PBLUC_HILL_SLOPE 17, PBLUC_R_SQUARED 0.625, read-out: LUCIFERASE INFECTION ASSAY - IC50): 6.62 µM
O=C(CCc1c(-c2ccc(F)cc2)[nH]c2ccc(F)cc12)N1CCN(c2ccncc2)CC1 |  | 8.48 | IC50 (PBLUC_HILL_SLOPE 5.15, PBLUC_R_SQUARED 0.285, read-out: LUCIFERASE INFECTION ASSAY - IC50): 5.53 µM
